Results published in patent publication US20230313206A1, “System for inducible expression of an adapter in immune cells” (Miltenyi Biotec B.V. & Co. KG, priority 2020, published 2023).

Experiments:
Assay type in all cases: cell-based
drug-inducible T cells = test: Induction of anti-CD19 Fab-His6 secretion by drug-inducible primary T cells; supernatant stained on CD19+ Raji cells; details: 4-OHT 0-500 nM
Protocol: Lentiviral particles encoding for the drug-inducible cassette were manufactured as described in example 1.2. Drug-inducible T cells were generated as described in example 1.3. 1E4 LNGFR positive drug-inducible T cells were seeded in 100 μL TexMACS medium (Miltenyi Biotec) supplemented with IL-7 (Miltenyi Biotec) and IL-15 (Miltenyi Biotec) in a 96 round bottom well plate. Secretion of the His6-tagged anti-CD19 Fab was induced by the addition of different concentrations of 4-OHT (0-500 nM, Sigma-Aldrich) in 100 μL TexMACS medium (Miltenyi Biotec) supplemented with IL-7 (Miltenyi Biotec) and IL-15 (Miltenyi Biotec) to each well. Untransduced T cells constitute the negative control. Cells were incubated at 37° C. and 5% C02. His6-tagged anti-CD19 Fab containing supernatant was harvested 48 h after the induction. CD19^+ Raji cells were subsequently stained using T cell supernatant and anti-His-APC as secondary antibody. Therefore, 1E5 CD19^+ Raji cells were seeded in a 96 round bottom well plate. Cells were pelleted at 300 g for 5 min and stained with 50 μL of the collected T cell supernatant for 10 min at 4° C. […] The determined mean fluorescent intensity in the APC channel was correlated to the Fab concentration by extrapolation from a standard curve. […]

CD19+ Raji cells = test: Cytolytic activity of anti-His adapter CAR T cells in co-culture with Raji cells and inducible anti-CD19 Fab T cells; details: adapter CAR T cells (E:T 2:1) and 1E4 inducible T cells, 6 days
Protocol: Anti-His Adapter CAR T cell-mediated cytotoxicity against tumor cells was assessed by the quantification of living target cells using the MACSQuant® Analyzer 10 (Miltenyi Biotec). Therefore, 1E4 GFP^+ Raji cells were seeded in 50 μL TexMACS medium (Miltenyi Biotec) in a 96-well round-bottom plate. Anti-His Adapter CAR T cells were subsequently added at an E:T ratio of 2:1 in a volume of 50 μL TexMACS medium (Miltenyi Biotec). T cell numbers were adjusted to LNGFR expression implicating equal transduced and total T cell numbers in each well. The number of untransduced T cells was adjusted to total cell numbers. 1E4 anti-CD19 Fab inducible T cells that secrete the adapter molecule, a His-tagged anti-CD19 Fab, upon induction, were added to the respective wells. His-tagged anti-CD19 Fab secretion was induced by the addition of 100 nM 4-OHT (Sigma-Aldrich) in 50 μL TexMACS (Miltenyi Biotec) at the start of the assay. The plate was centrifuged at 300 g for 1 min and incubated at 37° C., 5% C02. The specific lysis of target cells was determined 6 days after co-culture set-up. […] Next, living target cells were quantified via flow cytometry. […] Living Raji tumor cells were defined as PI^−, GFP^+ cells and specific lysis was calculated according to the following formula: % specific lysis=(1−(Raji cell count [sample]/Raji cell count [target cell]))·100%.

[1] = system: PD-1 expression on T cells; test: PD-1 expression (activation) of anti-His adapter CAR T cells in co-culture with Raji cells and inducible anti-CD19 Fab T cells; details: adapter CAR T cells (E:T 2:1) and 1E4 inducible T cells, day 2
Protocol: To set up the co-culture, 1E4 GFP^+ Raji cells were seeded in 50 μL TexMACS medium (Miltenyi Biotec) in a 96-well round-bottom plate. Anti-His Adapter CAR T cells were subsequently added at an E:T ratio of 2:1 in a volume of 50 μL TexMACS medium (Miltenyi Biotec). T cell numbers were adjusted to LNGFR expression implicating equal transduced and total T cell numbers in each well. The number of untransduced T cells was adjusted to total cell numbers. 1E4 anti-CD19 Fab inducible T cells that secrete the adapter molecule, a His-tagged anti-CD19 Fab, upon induction, were added to the respective wells. His-tagged anti-CD19 Fab secretion was induced by the addition of 100 nM 4-OHT (Sigma-Aldrich) in 50 μL TexMACS (Miltenyi Biotec) at the start of the assay. The plate was centrifuged at 300 g for 1 min and incubated at 37° C., 5% C02 for 2 days. Activation of T cells was analyzed by staining the cells of the co-culture with anti-PD-1-PEVio770, CD3-VioBlue, CD8-VioGreen and LNGFR-APC conjugates (Miltenyi Biotec). Therefore, the co-culture plate was centrifuged at 300 g for 5 min and cells were stained with 50 μL staining mixture composed of the PD-1 PE07, conjugate (Miltenyi Biotec) diluted in PEB for 10 min at 4° C. Cells were washed twice with 200 μL PEB (300 g, 5 min). Cells were resuspended in 100 μL PEB for subsequent flow cytometric analysis. […]

Substance: 4-hydroxytamoxifen [4-OHT]
- Amount of His6-tagged anti-CD19-Fab in T cell supernatant with increasing 4-OHT concentration (drug-inducible T cells; 48 h, Fab concentration extrapolated from standard curve): increasing amounts of His6-tagged anti-CD19-Fab is detected
- Induction of His6-tagged anti-CD19-Fab secretion by inducible T cells (drug-inducible T cells; supernatant harvested 48 h after induction): strictly dependent on the presence of the inducer drug 4-OHT
- 4-OHT concentration at which specific lysis of CD19+ Raji cells was detected (CD19+ Raji cells): at least 1 nM
- 4-OHT concentration giving maximal specific lysis (CD19+ Raji cells): at least 10 nM
- 4-OHT concentration at which PD-1 expression on T cells was detected [1]: at least 10 nM
- 4-OHT concentration giving maximal frequency of PD-1 positive cells [1]: at least 50 nM
